The values that follow come from patent US10729688B2, “Hepatitis B antiviral agents” (Enanta Pharmaceuticals, Inc., priority 2018, dated 2020).

One data set deals with HBV. Nature of the data set: HepAD38 antiviral assay: reduction of viral product accumulation. Type of data set: cell-based. The conditions noted are these: Hepatitis B virus, 120 h; HepAD38 cells, tetracycline removed; harvest five days after compound addition; viral product (virion DNA by qPCR, or HBsAg/HBeAg by ELISA) reduced by 50% relative to no drug controls. As to the method:
(§1) Methods: HepAD38 cells were maintained as previously reported (Ladner et al, Antimicrob. Agents Chemother. 1997, 4, 1715). Briefly, cells were passaged upon attaining confluency in DMEM/F12 media in the presence of 10% FBS, Penn/Strep, 250 μg/mL G418, and 1 ug/ml tetracycline. Compounds were screened by first washing cells three times with PBS to remove tetracycline, and plating in 96 well plates at 35,000 cells/well. Compounds dissolved in DMSO were then diluted 1:200 into wells containing cells. Five days after compound addition, material was harvested for analysis. For an extended 8 day analysis, cells were plated and treated as described above, but media and compound were refreshed on day 2 and day 5 post initial treatment.
On harvest day, virion DNA was obtained by lysing with Sidestep Lysis and Stabilization Buffer and then quantified via quantitative real time PCR. Commercially available ELISA kits were used to quantitate the viral proteins HBsAg (Alpco) or HbeAg (US Biological) by following the manufacturer's recommended protocol after diluting samples to match the linear range of their respective assays. Irrespective of readout, compound concentrations that reduce viral product accumulation in the cell lysates or supernatants by 50% relative to no drug controls (EC50) are reported; EC50 ranges are as follows: A<0.1 μM; B 0.1-0.2 μM; C>0.2 μM.
Background: Quantitative PCR measures a nucleic acid by following its amplification.

Data set [1] can be described thus: Compound toxicity, ATPLite total ATP levels. Type of data set: cell-based. The conditions noted are these: human, HepAD38 cells; 15,000 cells/well; three days after compound addition; total ATP levels reduced by 50% relative to no drug controls. As for the experimental part: as §1
Compound toxicity was evaluated by seeding cells at 15,000 cells/well and treating with compound as described above.

As usually defined, the EC50 is the concentration needed to bring the measured effect to its halfway point. Low values mean an effect from little substance, high ones a need for much substance. One may read the CC50 as the concentration that lowers cell viability or growth by half. Higher therefore signals better tolerance by the cells.

For `O=C(Nc1cc(F)c(F)c(F)c1)N1Cc2c(N3CCCS3(=O)=O)cnn2[C@@H]2CCC[C@@H]21` [Example 10], the EC50 with HBV was below 100 nM. Also, the cytotoxic concentration (CC50) at 3 days in data set [1] is above 25000 nM.

Regarding `O=C(Nc1ccc(F)c(F)c1)N1Cc2c(N3CCCS3(=O)=O)cnn2[C@@H]2CCC[C@@H]21` [Example 11], the concentration giving a half-maximal response (EC50) in the data set on HBV is below 100 nM. The same molecule came in with a CC50 at 3 days in data set [1] above 25000 nM.

The molecule `O=C(Nc1ccc(F)c(Cl)c1)N1Cc2c(N3CCCS3(=O)=O)cnn2[C@@H]2CCC[C@@H]21` [Example 12] had an EC50 with HBV below 100 nM. Besides, the 50% cytotoxic concentration (CC50) at 3 days in data set [1] was above 25000 nM.

On to `C[C@@H]1N(c2cnn3c2CN(C(=O)Nc2cc(F)c(F)c(F)c2)[C@H]2CCC[C@H]23)C(=O)OC1(C)C` [Example 15], for which the EC50 with HBV is below 100 nM. This molecule also registered a CC50 at 3 days in data set [1] above 25000 nM.

In turn, `C[C@@H]1N(c2cnn3c2CN(C(=O)Nc2ccc(F)c(F)c2)[C@H]2CCC[C@H]23)C(=O)OC1(C)C` [Example 17] gave a concentration for a half-maximal effect (EC50) in the data set on HBV below 100 nM. In data set [1], this molecule came in with a CC50 at 3 days above 25000 nM.

In the data set on HBV, `C[C@@H]1N(c2cnn3c2CN(C(=O)Nc2ccc(F)c(Cl)c2)[C@H]2CCC[C@H]23)C(=O)OC1(C)C` [Example 18] came in with an EC50 below 100 nM. In data set [1], this molecule yielded a CC50 at 3 days above 25000 nM.

In the case of `CC1(C)CN(c2cnn3c2CN(C(=O)Nc2cc(F)c(F)c(F)c2)[C@H]2CCC[C@H]23)C(=O)O1` [Example 19], the EC50 in the data set with HBV was below 100 nM. Further, in data set [1], the CC50 at 3 days is above 25000 nM.

On to `CC(C)[C@H]1COC(=O)N1c1cnn2c1CN(C(=O)Nc1cc(F)c(F)c(F)c1)[C@H]1CCC[C@H]12` [Example 26], for which the concentration giving a half-maximal response (EC50) with HBV is below 100 nM. Besides, the 50% cytotoxic concentration (CC50) at 3 days in data set [1] was above 25000 nM.

In the data set with HBV, `O=C(Nc1cc(F)c(F)c(F)c1)N1Cc2c(N3CCCS3(=O)=O)cnn2[C@@H]2CCCC[C@@H]21` [Example 51] returned an EC50 below 100 nM. The molecule further displayed a cytotoxic concentration (CC50) at 3 days in data set [1] above 25000 nM.

Turning to `O=C(Nc1cc(F)c(F)c(F)c1)N1Cc2c(N3C(=O)O[C@@H]4CCCC[C@@H]43)cnn2[C@@H]2CCC[C@@H]21` [Example 53], in the data set with HBV, the concentration for a half-maximal effect (EC50) was below 100 nM. The same molecule displayed a 50% cytotoxic concentration (CC50) at 3 days in data set [1] above 25000 nM.

In the data set with HBV, `CC1(C)COC(=O)N1c1cnn2c1CN(C(=O)Nc1cc(F)c(F)c(F)c1)[C@H]1CCC[C@H]12` [Example 60] displayed a 50% effective concentration (EC50) below 100 nM. In data set [1], this molecule showed a CC50 at 3 days above 25000 nM.

As for `O=C(Nc1cc(F)c(F)c(F)c1)N1Cc2c(N3CCCS3(=O)=O)cnn2C[C@@H]1c1ccccn1` [Example 72], the concentration giving a half-maximal response (EC50) with HBV was below 100 nM. Further, in data set [1], the CC50 at 3 days was above 25000 nM.

Molecule `O=C(Nc1cc(F)c(F)c(F)c1)N1Cc2c(N3CCCS3(=O)=O)cnn2C[C@@H]1C1CC1` [Example 73] gave a 50% effective concentration (EC50) in the data set with HBV below 100 nM. Also, the half-maximal cytotoxic concentration (CC50) at 3 days in data set [1] was above 25000 nM.

In turn, `O=C(Nc1cc(F)c(F)c(F)c1)N1Cc2c(N3CCCS3(=O)=O)cnn2C[C@@H]1c1ccn[nH]1` [Example 76] showed a half-maximal effective concentration (EC50) with HBV above 200 nM.
